Test results from patent publication US20200062719A1, “Application of Imidazopyridine Derivatives in Regenerative Medicine” (University of Heidelberg, priority 2018, published 2020).

Key:
[1] = Metabolic analysis of O4I2 incubated with NCCIT cells (HPLC, LC/MS); format: in vitro ADME, human; conditions: 24 hours, O4I2 50 μM
Protocol: (§1) The inventors adopted Hantzsch thiazole synthesis (FIG. 20A) and produced a series of new O4I2-ester derivatives (FIG. 20B). Their activities were measured in three luciferase report cell lines, namely HEK-OCT4, driven by the activation of OCT4-promoter, and NCCIT-OCT4 and NCCIT-NANOG, whose intensities are controlled by endogenous OCT4 and NANOG respectively. […] Carboxylesterase 1 (CES1) is an enzyme majorly contributing to ester-to-acid conversion.
NCCIT cells were treated with O4I2 (50 μM) in RPMI 1640 medium containing 2% BSA/FBS. Medium and cells were collected. Cell pellet was solved in 0.1% Triton-x. Protein precipitated by adding MeOH (pH=2) in lysate supernatant on ice for 2 h. Metabolites were extracted from the combined supernatant with ethyl acetate. After removal of organic solvent, residue was dissolved in acetonitrile, frozen immediately in liquid N2 and stored in −80° C. until further analysis.
Samples obtained after purification were diluted to contain 20% MeOH. 100 μL of the sample was transferred to an HPLC vial and placed in the autosampler of an Agilent 1200 series HPLC machine. Sample (20 μL) was injected into the system and metabolites were separated on a C18 column (Kinetex 2.6 μm, C18, 100 Å, dimensions 100×2.1 mm, Phenomenex, Aschaffenburg, Germany). […]

[2] = Expression of pluripotency genes in unmodified NCCIT cells; format: cell-based, human
From the text: Consistently, in unmodified NCCIT cells O4I4 forced the expression of OCT4 (3-fold increase as compared to 0.1% DMSO treatment) and NANOG (30-fold increase) as well as other pluripotency-related genes, like E-CADHERIN, SOX2, REX1 and STAT3, 0414-mediated enrichment of OCT4 and NANOG, as well as SOX2 and E-CADHERIN, was also detected by fluorescence-activated cell sorting. […] It was reported that removal of bFGF led to the loss of pluripotency-marker expression in hPSCs, including OCT4, SOX2, E-CADHERIN and NANOG, which however was rescued in the presence of O4I4 (FIG. 21A), indicating a positive function of O4I4 in maintaining the pluripotency-associated transcriptional circuitry in hPSC.
Quantitative reverse-transcription real-time-PCR was performed using a Light Cycler 96 (Roche, Germany) following the manufacturer's protocol. Briefly, total RNA was isolated from cells using TRIzol (Qiagen, Germany) or NucleoSpin®RNA Plus (Macherey-Nagel, Germany). The same amount of RNA was used to reverse-transcriptional synthesize cDNA by using random primers ProtoScript® First Strand cDNA Synthesis Kit (NEB, Germany). qPCR was performed using the SYBR Green PCR master mix (qPCRBIO SyGreen Mix Lo-Rox, Nippon Genetics, Germany) and the primer pairs indicated below (MWG, Eurofins, Germany). Actin was used as an endogenous control. […]

daf-16 = test: Daf-16 localization assay in C. elegans TJ356; format: in vivo
Protocol: In this experiment, transgenic worms TJ356 (Daf-16::GFP) are employed to study our target substance affects the localization of daf-1 6. After 24 h treatment, worms were transferred to a glass slide and paralyzed with 10 mM sodium azide. BZ9000 fluorescence microscope was used to observe the localization of daf-1 6. In each sample, around 50 worms were scored for three localization patterns: cytoplasmic, intermediate and nuclear.

OCT4-promoter = test: Luciferase reporter assay in HEK-OCT4 cells; format: cell-based; conditions: HEK-OCT4, NCCIT-OCT4 and NCCIT-NANOG
Protocol: In an effort to find such chemical structures able to induce pluripotency, a high-throughput screening (HTS) was performed. The screen was based on cellular luciferase reporter assays under the control of the promoter activity of a pluripotency-associated transcription factor (Oct4) in HEK293 cells.
as §1

Oct4 [3] = test: Immunoblotting of OCT4 protein in human primary fibroblasts; format: cell-based
Protocol: In human primary fibroblasts, O4I4 promoted the expression of pluripotency-associated genes, including OCT4, SOX2, NANOG, LIN28, E-CADHERIN, REX1 and SALL4. […] FACS analysis further confirmed the O4I4-mediated induction of OCT4 and E-CADHERIN.
iPSCs were lysed using urea-lysis buffer (1 mM EDTA, 0.5% Triton X-100, 5 mM NaF, 6 M Urea, 1 mM Na3VO4, 10 μg/mL Pepstatin, 100 μM PMSF and 3 μg/mL Aprotinin in PBS). Enhanced chemiluminescence (ECL) immunoblot analysis was performed. 40 μg of total protein was resolved on 12% SDS-PAGE gels and immunoblotted with antibodies. […] antibody was used as loading control. Primary antibodies were incubated at 1:1000 dilution in TBS (pH 7.5) with 0.1% Tween-20 and 5% BSA/milk with gentle agitation overnight at 4° C. Secondary antibodies (Dianova, Germany) were incubated in TBS (pH 7.5) with 5% Milk and 0.1% Tween-20 at a 1:10,000 dilution for 1 h at room temperature.

C. elegans [4] = test: C. elegans lifespan assay; format: in vivo; conditions: 0.5 μM
Protocol: O4I4 (0.5 μM) were continuously added in medium until all the worms die. During the experiment period, every two days or three days, worms were counted either live or die by responding to a gentle touch with a platinum wire.

C. elegans [5] = test: C. elegans survival assay under oxidative stress (juglone); format: in vivo
Protocol: Eggs were released by lysing gravid adults with bleaching for 10 min. Resuspended eggs in sterile M9 buffer and incubated at 20° C. for 16-18 h. After all the worms were synchronized at the same L1 larval stage, transferred them into the liquid S-media which contents E. coli OP50 (0D600=0.8-1.2). Then, synchronized worms were treated with DMSO, 50 μg/ml epigallocatechin gallate (EGCG) or O4I4 (5 μM, 10 μM, and 20 μM) for further experiments.
After 48 h treatment, around 60 wild-type C. elegans (N2) worms in each sample were transferred into a new liquid S-media which contains 80 μM of superoxide-generating compound juglone (5-hydroxy-1,4-naphthalenedione) for 24 h. If a worm has response via a gentle touch with platinum wire, it is considered as a live worm. Conversely, a dead worm was considered by no response. The function of the survival rate is shown below.

Oct4 [6] = test: Luciferase reporter assay in NCCIT-Oct4 cells; format: cell-based, human; conditions: 10 μM, 48 h
hiPSCs = test: iPSC single cell expansion, viability by MTT assay; format: cell-based, human; conditions: much higher concentration and lower efficacy than O4I3
Protocol: Since O4I3 induced sustainable expression of Oct4 and Nanog, the inventors questioned if it supports iPSC self-renewal in single cell expansion. Therefore, the viability of iPSCs, after replating Accutase®-dissociated single iPSCs, was tested in the presence or absence of O4I3. Rocki (Y-27632) was used for the first 24 h to increase iPSCs survival. A nearly 300% higher viability in cells treated with O4I3 (1 nM) was observed. Using 50 nM of O4I3 even 400% increase was observed (FIG. 2A). FACS analysis confirmed homologous expression of iPSCs markers, Tra-1-81 and Oct4, for at least 30 passages (FIG. 2B).
iPSC single cell expansion was performed according to a well-established protocol known in the art (Watanabe et al, Nat Biotechnol, 2007, 25(6), 681-6). Briefly, iPSCs were dissociated with Accutase® as single cell suspension and re-seeded in a Geltrex-coated 96-well plate in the presence of Rock inhibitor for the first 24 h in combination with/without O4I3. Cell viability was performed in MTT assay as disclosed elsewhere (Cheng et al, Mol Oncol. 2016 June; 10(6):806-24).

Nanog = test: Luciferase reporter assay in NCCIT-Nanog cells; format: cell-based, human; conditions: 10 μM, 48 h
Protocol: It is known in the art that Nanog is a direct target of Oct4 and can be activated by other Oct4 inducing compounds. […] At higher concentrations of O4I3 (FIGS. 1B and 1C) less activity was observed. Moreover, the activity of zolpidem (N,N-Dimethyl-2-(6-methyl-2-p-tolylimidazo[1,2-a]pyridin-3-yl)acetamid) (100) containing a similar backbone to O4I3 was tested in both reporter cell lines. An approximate 2-fold induction at 10 μM was detected (FIG. 8 and FIG. 9).
Luciferase reporter assay was performed using Beatle Juice Kit (PJK, Germany) according to the manufacturer's instruction. NCCIT-Oct and NCCIT-Nanog reporter cells were plated into a 24-well plate (100,000 cells/well) for 24 h. Cells were treated with compounds as indicated and harvested with luciferase lysis buffer (25 mM Tris phosphate buffer pH=7.8, 4 mM EGTA, 1% Triton X-100, 10% glycerol and 2 mM fresh DTT, filtered through 0.45 μm sterile filter) at 37° C. for 15 min. The protein concentration was determined by Bradford assay (Sigma, Germany). 100 μL reaction mixture containing luciferin and ATP was added to 20 μL cell lysis in a white plate (Gibco, Germany), incubated for 5 min and measured by a luminometer plate-reader. The activity was determined as percent luminous intensity of treated cells over control cells from at least five-independent experiments.

human fibroblasts = test: Episome-based reprogramming of human fibroblasts, AP+ / iPSC-like colonies; format: cell-based; conditions: 1 μM, lower efficiency
Protocol: O4I3 was applied in commercially available episome-based reprogramming cocktail containing episomal vectors for overexpression of Oct4, Sox2, Klf4, Lin28 and L-Myc, as well as suppression of p53. In comparison to non-treated fibroblast cultures, 20 times more alkaline phosphatase (AP) positive colonies were detected in the presence of O4I3 at a concentration of 50 nM in two tested human primary fibroblasts (HF1 and HF2) (FIG. 13).
It is known in the art that senescence or other unknown factors can confer donor fibroblasts resistance to reprogramming. Therefore, O4I3 was tested for its ability to enable reprogramming of refractory fibroblasts. Two human fibroblasts were selected. HFF-LTR7-EGFP at passage >40 carrying EGFP driven by a LTR7 promoter, which was activated during reprogramming, and HF5, isolated from a patient sample, both of which were resistant to an episome-based reprogramming approach (FIG. 13).
Epi5® Episomal iPSC Reprogramming Kit (Life technologies) was used to reprogram human fibroblasts according to the manufacturer's protocol. Briefly, 5,000-50,000 cells were seeded in a 24-well plate for 24 h and then transfected with episomal vectors in N2 B27 medium. After 14 days, cells were re-suspended with 0.5 mM EDTA and re-plated in a 6-well plate in Essential®8 medium. Colonies were isolated after 3-4 weeks with the help of alkaline phosphatase (AP) live stain (Life technologies). Medium was refreshed daily.

KDM5 = KDM5 demethylase inhibition, whole-cell nuclear extraction; format: biochemical; conditions: micromolar concentrations
From the text: (§2) HMT and HDM are two major classes of enzymes, contributing to the regulation of histone methylation. Lysine-specific demethylase 1 (LSD1) and histone lysine demethylase 5 (KDM5, also known as JARID1) majorly catalyze demethylation of H3K4. A few KDM5 chemical inhibitors have been reported to inhibit demethylation of H3K4, leading to an increase of global methylated H3K4 in various cell types. The inventors tested the inhibitory effect of O4I3 on LSD1 and KDM5. KDM4 (also known as JMJD2), the HDM of H3K9 and H3K36, was also included.
(§3) Epiquik histone demethylase (H3K4 specific) activity/inhibition assay kit (Epigentek, Biocat, Germany) was used to measure the protective effect of O4I3 and zolpidem on the methylation of H3K4. Their inhibitory effects on LSD1, KDM5s, and KDM4 were determined using Epigenase jarid demethylase activity/inhibition assay kit, Epigenase JMJD2 demethylase activity/inhibition assay kit and EpiQuik histone demethylase LSD1 activity/inhibition assay kit (Epigentek, Biocat, Germany). The total nuclear extraction was used according to manufacturer's instructions. For measuring KDM5A, KDM5B, KDM5C, and KDM5D activity, magnetic beads were used to immunoprecipitate the respective enzymes from 10^8 cells according to the manufacturer's instructions (Cell Signaling Technologies).

methylated H3K4 = test: In vitro H3K4 methylation assay (Epiquik histone demethylase H3K4 specific kit); format: biochemical; conditions: micromolar concentrations
Protocol: as §3

KDM4 = test system: T1, KDM4; test: KDM4 (JMJD2) demethylase inhibition, nuclear extraction; format: biochemical; conditions: micromolar concentrations
T1 construct: other: whole-cell nuclear extraction; other: micromolar concentrations
From the text: as §2, §3

SMILES: CCOC(=O)c1csc(Nc2ccc(Cl)cc2)n1 [O4I2]
- metabolic conversion in cells [1]: occurrence of ester-to-acid conversion

SMILES: Cc1cccc(Nc2nc(C(C)(C)C)cs2)c1C [O4I4]
- expression of NANOG, increase as compared to 0.1% DMSO treatment [2]: 30 fold
- expression of OCT4, increase as compared to 0.1% DMSO treatment [2]: 3 fold
- localization of daf-16 (daf-16): nucleic translocation
- activity in three luciferase reporter cell lines (OCT4-promoter): among the most active compounds
- OCT4 protein (Oct4 [3]): dose-dependent increase
- lifespan (C. elegans [4]): life extension
- survival ratio under oxidative stress (C. elegans [5]): increased survival ratio

SMILES: Cc1ccc(-c2nc3ccc(C)cn3c2CC(=O)N(C)C)cc1 [zolpidem, N,N-dimethyl-2-(6-methyl-2-p-tolylimidazo[1,2-a]pyridin-3-yl)acetamid, reference compound]
- induction in NCCIT-Oct4 reporter cells (Oct4 [6]): ~2 fold
- maintenance of iPSCs (hiPSCs): sustained the maintenance of iPSCs
- induction in NCCIT-Nanog reporter cells (Nanog): ~2 fold
- reprogramming of resistant fibroblasts (human fibroblasts): facilitated the reprogramming of resistant fibroblasts
- inhibition of KDM5 (KDM5): inhibited
- protection of H3K4 methylation (methylated H3K4): protected H3K4 methylation
- inhibition of KDM4 (KDM4): inhibited
